Laboratory results reported in US20260091049A1, “HALIDE-FREE AMMONIUM SILANES” (TOPIKOS SCIENTIFIC, INC., priority 2022, published 2026).
“And” between values parts separate entries of the source, which are not always exact repeats. Identical values can stand only once.

How the values were obtained:
[1] = Polymerization stability in aqueous media by LCMS/MS quantification of hydrolyzed trisiloxy species; format: physicochemical
[2] = Clarity and dissolution of the solid product in water; format: physicochemical
Experimental: A 500 mL round bottom reaction vessel was outfitted with an oil bath, stir bar, distillation head and condenser, receiving flask, oil bubbler, gas inlet that allows argon to pass through vessel and distillation setup, an immersion thermoprobe for the oil bath, and a thermoprobe for the head. The reactor is charged with 47.6 mL of a 42% methanolic solution of dimethyloctadecyl[3-(trimethoxysilyl)propyl]ammonium chloride (Aldrich), 200 mL DMF, 27.7 g (3 equiv.) of N-Tris(hydroxymethyl)methyl-2-aminoethanesulfonic acid (TES) and 8.7 mL of 25% MeONa in MeOH. The mixture is heated to 125 degrees C. (oil temp) and the methanol is collected by distillation. As the reaction is heated a homogenous solution is formed. As the methanol is distilled off a white precipitate begins to form. The reaction is heated until the head temp drops and no more MeOH is evolved (about 1.5 hours). The reaction is then cooled to room temperature and the precipitate (NaCl) is removed by filtration through a glass fiber filter and the DMF was concentrated to about 100 mL total volume at reduced pressure. The solution is cooled to rt. A 1 L flask under argon and a stir bar is charged with anhydrous acetonitrile (1000 mL) and cooled to ˜10 C. The DMF solution is added slowly to rapidly stirring acetonitrile to form a white suspension. Stirring is continued for 30 minutes. […]

Row | Compound | 2022 Concentration of Compound 1 hydrolysis product, average ([1]; average of three measurements after storage under ambient conditions for multiple years) | 2019 Concentration of Compound 1 hydrolysis product, average ([1]; average of three measurements, reference value immediately after preparation) | stability to polymerization in aqueous media ([1]; over prolonged periods of time) | 2022 Concentration of Compound 1 hydrolysis product ([1]; single measurements after storage under ambient conditions for multiple years, expected 60 μg/mL, expressed as Compound 1 equivalent) | 2019 Concentration of Compound 1 hydrolysis product ([1]; single measurements immediately after preparation, Compound 1 diluted in water to expected 60 μg/mL, expressed as Compound 1 equivalent) | time a solution in water remains clear ([2]; 1% solution in water) | dissolution of the powder in water ([2]; fine powder, water, gentle heating)
1 | CCCCCCCCCCCCCCCCCC[N+](C)(C)CCC[Si](O)(O)O [Compound 1 hydrolysis product] | Average: 58.3 μg/mL | Average: 62.6 μg/mL | excellent stability to polymerization | 59.2 µg/mL and 54.8 µg/mL and 60.9 µg/mL | 69.1 µg/mL and 54.3 µg/mL and 64.4 µg/mL |  | 
2 | CCCCCCCCCCCCCCCCCC[N+](C)(C)CCC[Si](OCC(CO)(CO)NCCS(=O)(=O)[O-])(OCC(CO)(CO)NCCS(=O)(=O)O)OCC(CO)(CO)NCCS(=O)(=O)O [Example 1, 2-[[1-[[3-[dimethyl(octadecyl)ammonio]propyl-[3-hydroxy-2-(hydroxymethyl)-2-(2-sulfoethylamino)propoxy]-[3-hydroxy-2-(hydroxymethyl)-2-(2-sulfoethylamino)propoxy]silyl]oxymethyl]-2-hydroxy-1-(hydroxymethyl)ethyl]amino]-ethanesulfonate] |  |  |  |  |  | > 5 months | dissolves quickly in water with gentle heating
